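Tested at 5 concentrations; 48 h exposure; 96-well plates; endpoints linearly interpolated, else capped at highest concentration. Definition used: TGI = concentration required for complete inhibition of growth.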
Assays:
Experiment in all cases: growth of human tumour cells (NCI), 48 h
[1] = test system: HCC-2998 colon
[2] = test system: SF-539 CNS
[3] = test system: T-47D breast
[4] = test system: OVCAR-5 ovarian
[5] = test system: 786-0 renal
[6] = test system: MDA-MB-435
[7] = test system: KM12 colon
[8] = test system: NCI/ADR-RES ovarian
[9] = test system: ACHN renal
[10] = test system: M14 melanoma
[11] = test system: SK-MEL-5 melanoma
[12] = test system: RXF 393 renal
[13] = test system: SF-295 CNS
[14] = test system: OVCAR-8 ovarian
[15] = test system: A549 NSCLC
[16] = test system: HS 578T breast
[17] = test system: SF-268 CNS
[18] = test system: SNB-19 CNS
[19] = test system: DU-145 prostate
[20] = test system: NCI-H460 lung
[21] = test system: BT-549 breast
[22] = test system: NCI-H23 lung
[23] = test system: HOP-92 NSCLC
[24] = test system: A498 renal
[25] = test system: MCF7 breast
[26] = test system: U251 CNS
[27] = test system: IGROV1 ovarian
[28] = test system: MALME-3M melanoma
[29] = test system: HL-60(TB) leukemia
[30] = test system: NCI-H226 lung
[31] = test system: CAKI-1 renal
[32] = test system: MOLT-4 leukemia
[33] = test system: HT29 colon
[34] = test system: SK-OV-3 ovarian
[35] = test system: SN12C renal
[36] = test system: MDA-N
[37] = test system: SK-MEL-2 melanoma
[38] = test system: NCI-H522 lung
[39] = test system: RPMI-8226 leukemia
[40] = test system: HCT-116 colon
[41] = test system: UACC-257 melanoma
[42] = test system: UO-31 renal
[43] = test system: LOX IMVI melanoma
[44] = test system: OVCAR-3 ovarian
[45] = test system: SW-620 colon
[46] = test system: PC-3 prostate
[47] = test system: TK-10 renal
[48] = test system: UACC-62 melanoma
[49] = test system: HOP-62 NSCLC
[50] = test system: MDA-MB-231 breast
[51] = test system: SK-MEL-28 melanoma
[52] = test system: EKVX NSCLC
[53] = test system: OVCAR-4 ovarian
[54] = test system: K-562 leukemia
[55] = test system: CCRF-CEM leukemia
[56] = test system: COLO 205 colon
[57] = test system: HCT-15 colon
[58] = test system: SNB-75 CNS

Structure (SMILES): N=C(N)C(N=Nc1ccccc1)C(=N)N (stereo not given)
- TGI [1]: 32.9 µM
- TGI [2]: 38.5 µM
- TGI [3]: > 100 µM
- TGI [4]: > 100 µM
- TGI [5]: > 100 µM
- TGI [6]: 42.7 µM
- TGI [7]: > 100 µM
- TGI [8]: > 100 µM
- TGI [9]: > 100 µM
- TGI [10]: > 100 µM
- TGI [11]: > 100 µM
- TGI [12]: > 100 µM
- TGI [13]: > 100 µM
- TGI [14]: > 100 µM
- TGI [15]: > 100 µM
- TGI [16]: > 100 µM
- TGI [17]: > 100 µM
- TGI [18]: > 100 µM
- TGI [19]: > 100 µM
- TGI [20]: > 100 µM
- TGI [21]: > 100 µM
- TGI [22]: > 100 µM
- TGI [23]: 83.9 µM
- TGI [24]: > 100 µM
- TGI [25]: > 100 µM
- TGI [26]: > 100 µM
- TGI [27]: > 100 µM
- TGI [28]: > 100 µM
- TGI [29]: 54.2 µM
- TGI [30]: 73.8 µM
- TGI [31]: > 100 µM
- TGI [32]: 99.3 µM
- TGI [33]: > 100 µM
- TGI [34]: > 100 µM
- TGI [35]: > 100 µM
- TGI [36]: 61.2 µM
- TGI [37]: 91.9 µM
- TGI [38]: > 100 µM
- TGI [39]: > 100 µM
- TGI [40]: > 100 µM
- TGI [41]: > 100 µM
- TGI [42]: > 100 µM
- TGI [43]: > 100 µM
- TGI [44]: > 100 µM
- TGI [45]: > 100 µM
- TGI [46]: > 100 µM
- TGI [47]: > 100 µM
- TGI [48]: > 100 µM
- TGI [49]: > 100 µM
- TGI [50]: 97.8 µM
- TGI [51]: > 100 µM
- TGI [52]: > 100 µM
- TGI [53]: > 100 µM
- TGI [54]: 99.1 µM
- TGI [55]: 40.6 µM
- TGI [56]: > 100 µM
- TGI [57]: > 100 µM

Structure (SMILES): Cc1cc(Cl)ccc1NC(=O)/C(CC(=O)CC(c1ccccc1)c1c(O)c2ccccc2oc1=O)=N\O (stereo not given)
- TGI [1]: > 100 µM
- TGI [2]: > 100 µM
- TGI [4]: > 100 µM
- TGI [5]: > 100 µM
- TGI [6]: > 100 µM
- TGI [7]: > 100 µM
- TGI [8]: > 100 µM
- TGI [9]: > 100 µM
- TGI [10]: > 100 µM
- TGI [11]: > 100 µM
- TGI [12]: > 100 µM
- TGI [13]: > 100 µM
- TGI [14]: > 100 µM
- TGI [15]: > 100 µM
- TGI [16]: > 100 µM
- TGI [17]: > 100 µM
- TGI [18]: > 100 µM
- TGI [19]: > 100 µM
- TGI [20]: > 100 µM
- TGI [21]: > 100 µM
- TGI [22]: > 100 µM
- TGI [23]: > 100 µM
- TGI [25]: > 100 µM
- TGI [26]: > 100 µM
- TGI [27]: > 100 µM
- TGI [29]: > 100 µM
- TGI [30]: > 100 µM
- TGI [31]: > 100 µM
- TGI [32]: > 100 µM
- TGI [33]: > 100 µM
- TGI [34]: > 100 µM
- TGI [35]: > 100 µM
- TGI [36]: > 100 µM
- TGI [37]: > 100 µM
- TGI [38]: > 100 µM
- TGI [40]: > 100 µM
- TGI [41]: > 100 µM
- TGI [42]: > 100 µM
- TGI [43]: > 100 µM
- TGI [44]: > 100 µM
- TGI [58]: > 100 µM
- TGI [45]: > 100 µM
- TGI [46]: > 100 µM
- TGI [47]: > 100 µM
- TGI [48]: > 100 µM
- TGI [49]: > 100 µM
- TGI [50]: > 100 µM
- TGI [51]: > 100 µM
- TGI [52]: > 100 µM
- TGI [53]: > 100 µM
- TGI [55]: > 100 µM
- TGI [56]: > 100 µM
- TGI [57]: > 100 µM
